The record followed here is ChEMBL document CHEMBL1135310, “Investigation of the PDZ domain ligand binding site using chemically modified peptides” (Bioorg Med Chem Lett, 2002).

Experiment [1] deals with T1, Membrane-associated guanylate kinase, WW and PDZ domain-containing protein 3 (Homo sapiens, UniProt Q5TCQ9).
T1 sequence (Q5TCQ9 whole entry): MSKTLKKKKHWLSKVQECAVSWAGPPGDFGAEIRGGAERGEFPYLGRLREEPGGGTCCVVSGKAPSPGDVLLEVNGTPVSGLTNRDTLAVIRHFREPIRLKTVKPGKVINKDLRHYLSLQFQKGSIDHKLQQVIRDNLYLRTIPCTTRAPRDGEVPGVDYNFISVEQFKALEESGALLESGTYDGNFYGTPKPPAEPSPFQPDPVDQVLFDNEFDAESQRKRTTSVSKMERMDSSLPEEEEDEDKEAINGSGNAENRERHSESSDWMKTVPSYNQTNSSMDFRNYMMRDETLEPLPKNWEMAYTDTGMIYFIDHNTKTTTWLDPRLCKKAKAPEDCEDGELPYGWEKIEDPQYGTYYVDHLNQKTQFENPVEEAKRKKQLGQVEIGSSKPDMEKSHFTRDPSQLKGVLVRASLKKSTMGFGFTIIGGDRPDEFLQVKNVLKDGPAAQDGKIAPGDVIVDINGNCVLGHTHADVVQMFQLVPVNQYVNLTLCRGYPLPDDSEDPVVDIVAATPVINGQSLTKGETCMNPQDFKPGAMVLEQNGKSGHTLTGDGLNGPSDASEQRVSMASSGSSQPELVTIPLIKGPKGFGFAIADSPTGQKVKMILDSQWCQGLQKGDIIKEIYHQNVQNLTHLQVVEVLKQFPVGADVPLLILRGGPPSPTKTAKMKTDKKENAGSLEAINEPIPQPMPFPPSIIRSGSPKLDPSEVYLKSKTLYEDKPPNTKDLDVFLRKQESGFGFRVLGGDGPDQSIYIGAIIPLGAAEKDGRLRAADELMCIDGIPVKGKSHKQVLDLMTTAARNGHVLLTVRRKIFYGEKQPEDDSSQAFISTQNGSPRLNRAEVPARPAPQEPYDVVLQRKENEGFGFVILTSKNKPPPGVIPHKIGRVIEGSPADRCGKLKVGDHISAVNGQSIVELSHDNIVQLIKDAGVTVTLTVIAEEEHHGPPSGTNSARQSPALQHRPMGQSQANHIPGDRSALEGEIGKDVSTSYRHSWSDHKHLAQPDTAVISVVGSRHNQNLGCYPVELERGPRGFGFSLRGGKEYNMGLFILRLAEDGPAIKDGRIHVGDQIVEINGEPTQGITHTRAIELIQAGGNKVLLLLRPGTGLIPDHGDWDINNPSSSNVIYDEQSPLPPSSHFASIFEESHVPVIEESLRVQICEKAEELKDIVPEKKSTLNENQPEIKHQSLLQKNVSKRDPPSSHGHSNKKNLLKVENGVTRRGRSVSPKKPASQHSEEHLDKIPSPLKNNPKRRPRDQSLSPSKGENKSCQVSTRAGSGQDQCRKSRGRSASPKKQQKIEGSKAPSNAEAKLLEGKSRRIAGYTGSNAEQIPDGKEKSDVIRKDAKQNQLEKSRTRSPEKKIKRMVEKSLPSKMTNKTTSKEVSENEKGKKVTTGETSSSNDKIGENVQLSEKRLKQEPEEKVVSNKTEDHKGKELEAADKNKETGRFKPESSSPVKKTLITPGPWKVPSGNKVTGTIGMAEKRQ
Nature of the experiment: Inhibitory concentration for MAGI-3 PDZ2 domain.

Experiment [2] concerns the target T1, Membrane-associated guanylate kinase, WW and PDZ domain-containing protein 3. Briefly: Inhibitory concentration for MAGI-3 PDZ2 domain; ND denotes not detected.
For experiment [3] the target is unchanged. Nature of the experiment: Dissociation constant for binding to MAGI-3 PDZ2 domain.

Numbered stars: 1 amine (or outer) side, 2 acyl side, 3 side chain; on linkers, the order of the positions; unused ones are H or OH. Square brackets hold non-standard residues; d marks the D form. Peptide text beside a SMILES is read from it. * marks the point of attachment. X2 = C[C@@H](O)[C@H](O)[C@H](N[*:1])C(=O)[*:2]; X1 = O=C([C@@H](N[*:1])[C@@H](O)CCO)[*:2]; NMeW = CN[C@@H](Cc1c[nH]c2ccccc12)C(=O)O; NMeI = CC[C@H](C)[C@H](NC)C(=O)O; NMeT = CN[C@H](C(=O)O)[C@@H](C)O; NMeQ = CN[C@@H](CCC(N)=O)C(=O)O; NMeV = CN[C@H](C(=O)O)C(C)C; Valol = CC(C)[C@@H](CO)N*

As to `CC[C@H](C)[C@H](NC(=O)[C@H](CCC(N)=O)NC(=O)[C@@H](NC(C)=O)[C@@H](C)O)C(=O)N(C)[C@H](C(=O)N[C@@H](Cc1c[nH]c2ccccc12)C(=O)N[C@H](C(=O)O)C(C)C)[C@@H](C)O` (Ac-TQI[NMeT]WV-OH), 29 µM corresponded to half-maximal inhibition in experiment [1] (IC50). For the compound `CC[C@H](C)[C@H](NC(=O)[C@H](CCC(N)=O)NC(=O)[C@@H](NC(C)=O)[C@@H](C)O)C(=O)N[C@H](C(=O)N[C@@H](Cc1c[nH]c2ccccc12)C(=O)N[C@H](C(=O)O)C(C)C)[C@@H](O)[C@@H](C)O` (Ac-TQI[X2]WV-OH), the IC50 result in experiment [2] was “Not detected”.

Regarding `CC[C@H](C)[C@H](NC(=O)[C@H](CCC(N)=O)NC(=O)[C@@H](NC(C)=O)[C@@H](C)O)C(=O)N[C@H](C(=O)N[C@@H](Cc1c[nH]c2ccccc12)C(=O)N(C)[C@H](C(=O)O)C(C)C)[C@@H](C)O` (Ac-TQITW[NMeV]-OH), in experiment [2], the IC50 result is listed as “Not detected”. `CC[C@H](C)[C@@H](C(=O)N[C@H](C(=O)N[C@@H](Cc1c[nH]c2ccccc12)C(=O)N[C@H](C(=O)O)C(C)C)[C@@H](C)O)N(C)C(=O)[C@H](CCC(N)=O)NC(=O)[C@@H](NC(C)=O)[C@@H](C)O` (Ac-TQ[NMeI]TWV-OH) came in with an IC50 in experiment [1] of 20.4 µM. In turn, `CC[C@H](C)[C@H](NC(=O)[C@H](CCC(N)=O)NC(=O)[C@@H](NC(C)=O)[C@H](C)O)C(=O)N[C@@H](C(=O)N[C@@H](Cc1c[nH]c2ccccc12)C(=O)N[C@H](C(=O)NO)C(C)C)[C@H](C)O` came in with an IC50 in experiment [1] of 42.1 µM.

With H-PFDEDQHTQITWV-OH, the Kd in experiment [3] came out at 0.02 µM. This compound also returned an IC50 in experiment [1] of 0.74 µM. On to `CC[C@H](C)[C@H](NC(=O)[C@H](CCC(N)=O)NC(=O)[C@@H](NC(C)=O)[C@H](C)O)C(=O)NC(C(=O)N[C@@H](Cc1cn(C)c2ccccc12)C(=O)N[C@H](C(=O)O)C(C)C)[C@H](C)O` (single isomer, unassigned), for which the midpoint of inhibition in experiment [1], the IC50, lay at 34 µM. Ac-TQITWV-OH: in experiment [1], the midpoint of inhibition, the IC50, lay at 5.2 µM. The compound H-PFDEDQHTQITKV-OH gave a Kd in experiment [3] of 1 µM. As to `CC[C@H](C)[C@H](NC(=O)[C@H](CCC(N)=O)NC(=O)[C@@H](NC(C)=O)[C@H](C)O)C(=O)NC(C(=O)N[C@@H](Cc1c[nH]c2ccccc12)C(=O)N[C@H](C(=O)O)C(C)C)[C@@H](O)C(C)(C)O` (single isomer, unassigned), the IC50 entry in experiment [2] was “Not detected”. Still for that read-out and setting: the same measure for `CC[C@H](C)[C@H](NC(=O)[C@H](CCC(N)=O)NC(=O)[C@@H](NC(C)=O)[C@@H](C)O)C(=O)N[C@H](C(=O)N[C@@H](Cc1c[nH]c2ccccc12)C(=O)N[C@H](CO)C(C)C)[C@@H](C)O` (Ac-TQITW-Valol): “Not detected”. Consider `CC[C@H](C)[C@H](NC(=O)[C@H](CCC(N)=O)NC(=O)[C@@H](NC(C)=O)[C@@H](C)O)C(=O)N[C@H](C(=O)N[C@@H](Cc1c[nH]c2ccccc12)C(=O)N[C@H](C(=O)O)C(C)C)[C@@H](O)CCO` (Ac-TQI[X1]WV-OH), for which the IC50 result in experiment [2] is “Not detected”.

Consider `CC[C@H](C)[C@H](NC(C)=O)C(=O)N[C@H](C(=O)N[C@@H](Cc1c[nH]c2ccccc12)C(=O)N[C@H](C(=O)O)C(C)C)[C@@H](C)O` (Ac-ITWV-OH), for which the midpoint of inhibition in experiment [1], the IC50, lay at 14.8 µM. As for `CC[C@H](C)[C@H](NC(=O)[C@H](CCC(N)=O)N(C)C(=O)[C@@H](NC(C)=O)[C@@H](C)O)C(=O)N[C@H](C(=O)N[C@@H](Cc1c[nH]c2ccccc12)C(=O)N[C@H](C(=O)O)C(C)C)[C@@H](C)O` (Ac-T[NMeQ]ITWV-OH), the IC50 in experiment [1] was 9.8 µM. Ac-QITWV-OH: the IC50 in experiment [1] was 4.5 µM. H-PFDEDQHTQIAKV-OH [PFDEDQHTQIAKV] displayed an IC50 in experiment [1] of 14.4 µM. For `CCC(O)[C@H](O)C(NC(=O)[C@@H](NC(=O)[C@H](CCC(N)=O)NC(=O)[C@@H](NC(C)=O)[C@@H](C)O)[C@@H](C)CC)C(=O)N[C@@H](Cc1c[nH]c2ccccc12)C(=O)N[C@H](C(=O)O)C(C)C` (single isomer, unassigned), in experiment [2], the IC50 result is reported as “Not detected”. Turning to `CC[C@H](C)[C@H](NC(=O)[C@H](CCC(N)=O)NC(=O)[C@@H](NC(C)=O)[C@@H](C)O)C(=O)N[C@H](C(=O)N(C)[C@@H](Cc1c[nH]c2ccccc12)C(=O)N[C@H](C(=O)O)C(C)C)[C@@H](C)O` (Ac-TQIT[NMeW]V-OH), half-maximal inhibition in experiment [1] (IC50) was put at 10.6 µM. In turn, `CC[C@H](C)[C@H](NC(=O)[C@H](CCC(N)=O)NC(=O)[C@@H](NC(C)=O)[C@@H](C)O)C(=O)NC(C(=O)N[C@@H](Cc1c[nH]c2ccccc12)C(=O)N[C@H](C(=O)O)C(C)C)[C@@H](O)CO` (single isomer, unassigned) registered an IC50 in experiment [1] of 5.1 µM. The same measure, in the same setting: the same measure for Ac-HTQITWV-OH: 4.1 µM.

The term IC50 denotes the concentration that inhibits the measured activity by half. By Kd is commonly meant a measure of binding affinity in units of concentration.
